Assay results published in ChEMBL document CHEMBL5226288, “A perspective on medicinal chemistry approaches towards adenomatous polyposis coli and Wnt signal based colorectal cancer inhibitors” (Eur J Med Chem, 2021).
In brackets after ≈: the same amount, converted by molar mass. Non-standard residues stand in square brackets, D forms with d. Residues, ends and D or L forms follow the SMILES beside them. Hica(2S) = CC(C)C[C@H](O)C(=O)O; NMeV = CN[C@H](C(=O)O)C(C)C; NMeA = CN[C@@H](C)C(=O)O; βAla = NCCC(=O)O

Tests used:
[1] = tested on: SW480; experiment: Anticancer activity against human SW480 cells assessed as reduction in cell viability incubated for 12 to 24 hrs by MTS assay; assay type: functional, cell-based
[2] = tested on: LoVo; experiment: Antiproliferative activity against human LoVo cells assessed as reduction in cell viability; assay type: functional, cell-based
[3] = tested on: HCT-116; experiment: Antiproliferative activity against human HCT-116 cells assessed as reduction in cell proliferation incubated for 72 hrs by CellTiter-Glo assay; assay type: functional, cell-based; details: HCT-116, 72 h
[4] = Anticancer activity against human colorectal cancer cell lines assessed as reduction in cell viability incubated for 24 to 72 hrs by MTT assay; assay type: functional, cell-based
[5] = tested on: HCT-116; experiment: Antiproliferative activity against human HCT-116 cells assessed as reduction in cell proliferation incubated for 12 to 24 hrs by CCK-8 assay; assay type: functional, cell-based
[6] = tested on: SW480; experiment: Antiproliferative activity against human SW480 cells assessed as reduction in cell proliferation incubated for 12 to 24 hrs by CCK-8 assay; assay type: functional, cell-based
[7] = Inhibition of Wnt signalling in human HEK293T cells expressing Topflash and renilla luciferase reporter gene incubated for 24 hrs by Dual-luciferase assay; assay type: cell-based; details: HEK-293T
[8] = Inhibition of Wnt1 signalling in human SW480 cells expressing ST-Luc and renilla firefly luciferase incubated for 24 hrs by dual-luciferase reporter assay; assay type: cell-based; details: SW480, 24 h
[9] = Inhibition of Wnt1 signalling in human HCT-116 cells expressing ST-Luc and renilla firefly luciferase incubated for 24 hrs by dual-luciferase reporter assay; assay type: cell-based; details: HCT-116, 24 h
[10] = tested on: HCT-116; experiment: Anticancer activity against human HCT-116 cells assessed as reduction in cell viability incubated for 72 hrs; assay type: functional, cell-based; details: HCT-116, 72 h
[11] = tested on: SW480; experiment: Anticancer activity against human SW480 cells assessed as reduction in cell viability incubated for 72 hrs; assay type: functional, cell-based; details: SW480, 72 h
[12] = molecular target: CBP/beta catenin (Homo sapiens, UniProt P35222+Q92793); experiment: Antagonist activity at CBP/beta-catenin (unknown origin) protein-protein interaction; assay type: protein assay
Chain of CBP/beta catenin (Q92793 whole entry): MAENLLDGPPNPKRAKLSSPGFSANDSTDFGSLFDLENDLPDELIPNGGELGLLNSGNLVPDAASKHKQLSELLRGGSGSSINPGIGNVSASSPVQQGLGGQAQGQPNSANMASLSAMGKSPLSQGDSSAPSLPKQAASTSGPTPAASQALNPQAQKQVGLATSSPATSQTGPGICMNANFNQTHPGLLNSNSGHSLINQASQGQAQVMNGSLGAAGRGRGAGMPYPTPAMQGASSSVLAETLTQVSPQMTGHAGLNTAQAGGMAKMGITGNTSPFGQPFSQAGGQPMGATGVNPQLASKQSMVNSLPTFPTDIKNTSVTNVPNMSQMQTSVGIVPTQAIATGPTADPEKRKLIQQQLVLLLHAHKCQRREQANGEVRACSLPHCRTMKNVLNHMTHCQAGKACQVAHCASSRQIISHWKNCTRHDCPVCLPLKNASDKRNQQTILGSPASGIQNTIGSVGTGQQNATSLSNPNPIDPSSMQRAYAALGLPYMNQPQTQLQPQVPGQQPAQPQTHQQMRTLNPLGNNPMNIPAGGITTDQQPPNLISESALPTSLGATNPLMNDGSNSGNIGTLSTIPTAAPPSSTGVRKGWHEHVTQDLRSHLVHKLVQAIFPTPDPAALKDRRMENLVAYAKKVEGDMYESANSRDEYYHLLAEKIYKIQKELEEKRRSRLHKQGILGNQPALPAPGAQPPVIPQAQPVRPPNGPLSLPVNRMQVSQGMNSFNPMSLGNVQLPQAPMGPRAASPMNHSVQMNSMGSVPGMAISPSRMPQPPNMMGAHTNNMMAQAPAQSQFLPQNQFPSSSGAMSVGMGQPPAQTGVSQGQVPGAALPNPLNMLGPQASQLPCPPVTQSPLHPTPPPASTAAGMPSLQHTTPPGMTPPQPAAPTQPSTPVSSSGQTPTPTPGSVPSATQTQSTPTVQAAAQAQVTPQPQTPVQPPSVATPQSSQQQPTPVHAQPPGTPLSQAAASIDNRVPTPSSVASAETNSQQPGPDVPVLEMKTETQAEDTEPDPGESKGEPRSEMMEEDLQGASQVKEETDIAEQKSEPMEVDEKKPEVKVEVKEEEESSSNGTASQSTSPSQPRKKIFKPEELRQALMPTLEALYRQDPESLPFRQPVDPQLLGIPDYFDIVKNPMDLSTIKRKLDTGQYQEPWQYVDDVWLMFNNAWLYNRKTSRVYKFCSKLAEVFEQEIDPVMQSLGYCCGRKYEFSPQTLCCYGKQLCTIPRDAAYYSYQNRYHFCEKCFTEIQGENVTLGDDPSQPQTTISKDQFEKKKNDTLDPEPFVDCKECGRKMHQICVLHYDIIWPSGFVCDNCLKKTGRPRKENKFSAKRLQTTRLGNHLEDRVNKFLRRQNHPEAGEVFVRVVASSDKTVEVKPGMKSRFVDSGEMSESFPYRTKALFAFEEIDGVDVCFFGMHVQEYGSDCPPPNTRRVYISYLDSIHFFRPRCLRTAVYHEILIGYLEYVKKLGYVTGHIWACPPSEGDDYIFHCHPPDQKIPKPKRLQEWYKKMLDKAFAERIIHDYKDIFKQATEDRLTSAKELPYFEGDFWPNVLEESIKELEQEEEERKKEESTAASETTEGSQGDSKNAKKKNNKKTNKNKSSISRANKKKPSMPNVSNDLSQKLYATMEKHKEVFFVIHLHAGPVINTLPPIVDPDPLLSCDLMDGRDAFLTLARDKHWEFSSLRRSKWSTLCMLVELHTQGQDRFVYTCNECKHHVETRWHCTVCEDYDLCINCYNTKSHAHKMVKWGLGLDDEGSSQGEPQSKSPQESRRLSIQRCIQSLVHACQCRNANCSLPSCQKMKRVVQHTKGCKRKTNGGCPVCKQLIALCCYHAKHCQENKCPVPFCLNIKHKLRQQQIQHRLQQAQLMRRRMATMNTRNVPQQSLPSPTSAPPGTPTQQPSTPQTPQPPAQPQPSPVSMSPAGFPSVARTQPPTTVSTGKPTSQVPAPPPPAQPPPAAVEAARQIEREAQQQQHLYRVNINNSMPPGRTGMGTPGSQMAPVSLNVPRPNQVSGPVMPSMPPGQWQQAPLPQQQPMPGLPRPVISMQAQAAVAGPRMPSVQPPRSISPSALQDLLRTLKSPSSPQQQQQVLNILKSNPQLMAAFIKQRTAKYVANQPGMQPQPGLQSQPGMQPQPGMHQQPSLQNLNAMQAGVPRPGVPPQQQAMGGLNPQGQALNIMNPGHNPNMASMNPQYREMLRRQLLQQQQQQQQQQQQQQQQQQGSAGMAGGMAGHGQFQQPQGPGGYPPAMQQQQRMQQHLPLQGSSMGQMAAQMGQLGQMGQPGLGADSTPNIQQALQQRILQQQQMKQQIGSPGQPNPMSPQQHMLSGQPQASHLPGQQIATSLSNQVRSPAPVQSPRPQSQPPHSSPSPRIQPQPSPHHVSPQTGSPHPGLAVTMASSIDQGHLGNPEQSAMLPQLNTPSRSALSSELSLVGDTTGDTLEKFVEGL
Chain of CBP/beta catenin (P35222 whole entry): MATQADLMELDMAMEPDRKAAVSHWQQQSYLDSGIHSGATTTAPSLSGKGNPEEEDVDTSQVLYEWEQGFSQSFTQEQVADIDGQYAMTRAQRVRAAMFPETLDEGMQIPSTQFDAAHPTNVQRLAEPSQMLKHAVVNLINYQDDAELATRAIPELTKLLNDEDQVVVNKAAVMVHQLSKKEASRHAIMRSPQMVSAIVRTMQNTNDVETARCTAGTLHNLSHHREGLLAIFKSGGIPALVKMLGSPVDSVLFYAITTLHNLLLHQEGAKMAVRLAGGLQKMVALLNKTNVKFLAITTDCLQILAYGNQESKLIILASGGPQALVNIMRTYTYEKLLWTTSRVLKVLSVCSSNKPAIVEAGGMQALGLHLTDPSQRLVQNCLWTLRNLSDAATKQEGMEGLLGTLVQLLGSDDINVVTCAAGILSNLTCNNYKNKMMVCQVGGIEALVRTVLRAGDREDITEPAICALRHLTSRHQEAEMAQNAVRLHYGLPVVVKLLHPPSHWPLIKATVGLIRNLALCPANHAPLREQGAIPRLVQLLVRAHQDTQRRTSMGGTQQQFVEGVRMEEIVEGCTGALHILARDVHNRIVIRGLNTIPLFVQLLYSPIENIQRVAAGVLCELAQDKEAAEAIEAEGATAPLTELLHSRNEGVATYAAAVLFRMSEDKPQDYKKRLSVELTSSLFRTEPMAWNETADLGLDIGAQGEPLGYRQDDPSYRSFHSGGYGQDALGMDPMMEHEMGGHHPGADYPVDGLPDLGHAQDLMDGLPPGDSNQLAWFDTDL

[13] = tested on: DLD-1; experiment: Antiproliferative activity against human DLD-1 cells assessed as reduction in cell viability by WST assay; assay type: functional, cell-based
[14] = tested on: HCT-116; experiment: Anticancer activity against human HCT-116 cells assessed as reduction in cell proliferation incubated for 48 hrs by sulforhodamine B assay; assay type: functional, cell-based; details: HCT-116, 48 h
[15] = tested on: SW480; experiment: Anticancer activity against human SW480 cells assessed as reduction in cell proliferation incubated for 48 hrs by sulforhodamine B assay; assay type: functional, cell-based; details: SW480, 48 h
[16] = tested on: SW48; experiment: Anticancer activity against human SW48 cells assessed as cell growth inhibition; assay type: functional, cell-based
[17] = tested on: SW480; experiment: Anticancer activity against human SW480 cells assessed as reduction in cell viability incubated for 24 hrs by MTT assay; assay type: functional, cell-based; details: SW480, 24 h
[18] = tested on: LoVo; experiment: Anticancer activity against human LoVo cells assessed as reduction in cell viability incubated for 24 hrs by MTT assay; assay type: functional, cell-based
[19] = tested on: HCT-116; experiment: Antiproliferative activity against human HCT-116 cells assessed as reduction in cell viability incubated for 72 hrs by MTS assay; assay type: functional, cell-based; details: HCT-116, 72 h
[20] = tested on: HT-29; experiment: Antiproliferative activity against human HT-29 cells assessed as reduction in cell viability; assay type: functional, cell-based
[21] = tested on: SW480; experiment: Anticancer activity against human SW480 cells assessed as cell growth inhibition incubated for 24 hrs by MTS assay; assay type: functional
[22] = tested on: SW480; experiment: Antiproliferative activity against human SW480 cells assessed as reduction in cell viability incubated for 24 hrs by CCK-8 assay; assay type: functional, cell-based; details: SW480, 24 h
[23] = tested on: SW480; experiment: Antiproliferative activity against human SW480 cells expressing firefly and renilla luciferase assessed as reduction in cell growth incubated for 3 hrs by TOPFlash luciferase assay; assay type: functional, cell-based; details: SW480, 3 h
[24] = molecular target: Catenin beta-1/Transcription factor 7 (Homo sapiens, UniProt P35222+P36402); experiment: Inhibition of human beta-catenin (142 to 686 residues)/human TCF (7 to 51 residues) protein-protein interaction incubated for 3 hrs by fluorescence polarization assay
Chain of Catenin beta-1/Transcription factor 7 (P36402 whole entry, the tested form may be a part): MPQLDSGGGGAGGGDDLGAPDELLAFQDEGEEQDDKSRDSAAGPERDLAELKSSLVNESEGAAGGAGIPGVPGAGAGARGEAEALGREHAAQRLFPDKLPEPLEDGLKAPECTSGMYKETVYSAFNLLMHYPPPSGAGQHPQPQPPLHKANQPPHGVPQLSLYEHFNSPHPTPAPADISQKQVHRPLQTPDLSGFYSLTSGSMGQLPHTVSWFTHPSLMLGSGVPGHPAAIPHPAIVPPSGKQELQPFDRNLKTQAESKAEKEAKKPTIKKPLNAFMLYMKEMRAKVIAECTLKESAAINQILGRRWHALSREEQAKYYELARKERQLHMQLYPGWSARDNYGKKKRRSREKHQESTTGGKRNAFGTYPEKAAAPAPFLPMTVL
Chain of Catenin beta-1/Transcription factor 7 (P35222 whole entry, the tested form may be a part): as the sequence (P35222 whole entry) above

[25] = tested on: KM12; experiment: Anticancer activity against human KM12 cells assessed as reduction in cell viability incubated for 24 hrs by CCK-8 assay; assay type: functional, cell-based; details: KM12, 24 h
[26] = tested on: SW-620; experiment: Anticancer activity against human SW-620 cells assessed as reduction in cell viability incubated for 24 hrs by CCK-8 assay; assay type: functional, cell-based; details: SW-620, 24 h
[27] = tested on: SW480; experiment: Anticancer activity against human SW480 cells assessed as reduction in cell viability incubated for 72 hrs by MTT assay; assay type: functional, cell-based; details: SW480, 72 h
[28] = molecular target: DNA polymerase beta (Homo sapiens, UniProt P06746); experiment: Inhibition of human DNA polymerase beta by fluorescence anisotropy

SMILES: O=C(Nc1ccc([N+](=O)[O-])cc1Cl)c1cc(Cl)ccc1O [NICLOSAMIDE]
- IC50 [1]: 1 µM

SMILES: COc1cc2c(cc1OC)[C@@]13CCN4CC5=CCO[C@H]6CC(=O)N2[C@H]1[C@H]6[C@H]5C[C@H]43 [BRUCINE]
- IC50 [2]: 18.2 µM

SMILES: CC(=O)c1cc2c(o1)C(=O)c1ccccc1C2=O [NAPABUCASIN]
- IC50 [3]: 0.3 µM

SMILES: C[C@H]1[C@H](OC(=O)CCC(=O)O)O[C@@H]2O[C@@]3(C)CC[C@H]4[C@H](C)CC[C@@H]1[C@@]24OO3 [ARTESUNATE]
- IC50 [4]: 20.3 µM

SMILES: O=c1[nH]c2ccccc2n1C1CCN(CCCC(c2ccc(F)cc2)c2ccc(F)cc2)CC1 [PIMOZIDE]
- IC50 [5]: 10 µM
- IC50 [6]: 10 µM

SMILES: CCn1c2ccccc2c2cc(C(=O)OC(C)C)nc(-c3cccc4ccccc34)c21
- IC50 [7]: 2.8 µM

SMILES: CC[C@]12CCCN3CCc4c(n(c5ccccc45)[C@@H](c4ccc(O)c5c4N[C@H]4CC[C@]6(CC)CCCN7CC[C@]54[C@@H]76)C1)C32 (stereo partly drawn)
- IC50 [8]: 4.94 µM
- IC50 [9]: 4.47 µM

SMILES: Cc1cc(/C=C/c2ccc3cc(N(C)C)ccc3[n+]2C)c(C)n1-c1ccccc1
- EC50 [10]: 0.043 µM
- EC50 [11]: 0.056 µM

SMILES: C[C@H]1[C@H]2N(C(=O)CN(C)N2C(=O)NCc2ccccc2)[C@@H](Cc2ccc(OP(=O)(O)O)cc2)C(=O)N1Cc1cccc2cccnc12
- IC50 [12]: 0.15 µM

SMILES: O=C1[C@@H](Cc2ccccc2)N2C(=O)CCN(C(=O)NCc3ccccc3)[C@@H]2CN1Cc1cccc2ccccc12
- IC50 [13]: 21.5 µM

SMILES: CC[C@H](C)[C@@H]1NC(=O)[C@@H]2CCCN2C(=O)[C@H](CC(C)C)OC(=O)CCNC(=O)[C@H](C)N(C)C(=O)[C@H](C(C)C)N(C)C1=O [destruxin B] (cyclo([Hica(2S)]PI[NMeV][NMeA][βAla]))
- IC50 [14]: 6.3 µM
- IC50 [15]: 6.25 µM

SMILES: COc1cc(OC)c2c(c1)O[C@@]1(c3ccc(Br)cc3)[C@H](c3ccccc3)C[C@@H](O)[C@@]21O
- IC50 [16]: 0.01 µM

SMILES: C[C@@H]1O[C@@H](O[C@H]2[C@H](O[C@H]3[C@H](O[C@H]4CC[C@@]5(C)C6CC=C7[C@@H]8CC(C)(C)CC[C@]8(C(=O)O)CC[C@]7(C)C6(C)CC[C@H]5C4(C)C)OC[C@H](O)[C@@H]3O)O[C@H](CO)[C@@H](O)[C@@H]2O)[C@H](O)[C@H](O)[C@H]1O (stereo partly drawn)
- IC50 [17]: 1.81 µM
- IC50 [18]: 1.01 µM

SMILES: C=CCN1CC(=O)N2C(CN(Cc3cccc4cn(C)nc34)C[C@@H]2Cc2ccc(OP(=O)(O)O)cc2)N1C(=O)NCc1ccccc1 (stereo partly drawn)
- IC50 [19]: 0.91 µM

SMILES: Nc1ccc(O)c(C(=O)O)c1 [MESALAMINE]
- IC50 [20]: 20000 µM

SMILES: CN1CC(=O)N2C(CN(Cc3cccc4ccccc34)C[C@@H]2Cc2ccc(O)cc2)N1C(=O)NCc1ccccc1 (stereo partly drawn)
- GI50 [21]: 0.98 µg/mL (≈ 1.78 µM)

SMILES: CC(C)[C@]12O[C@H]1[C@@H]1O[C@]13[C@]1(O[C@H]1C[C@H]1C4=C(CC[C@@]13C)C(=O)OC4)[C@@H]2O [TRIPTOLIDE]
- IC50 [22]: 0.05 µM

SMILES: O=C(NCc1ccccc1)N1CCC(=O)N2C1CN(Cc1cccc3ccccc13)C[C@@H]2Cc1ccc(O)cc1 (stereo partly drawn)
- IC50 [23]: 8.07 µM

SMILES: Cn1ncc2cc(CCc3nn[nH]n3)ccc21
- IC50 [24]: 3.14 µM

SMILES: CO[C@@H]1C[C@@H](C[C@H]2CC[C@H](C)[C@H]([C@@H](C)C(=O)O)O2)O[C@]2(O[C@](C)([C@H]3CC[C@@](C)([C@@H]4O[C@@H]([C@H]5O[C@@](O)(CO)[C@H](C)C[C@@H]5C)C[C@@H]4C)O3)C[C@H]2C)[C@@H]1C [NIGERICIN]
- IC50 [25]: 8.48 µM
- IC50 [26]: 1.39 µM

SMILES: C[C@@H]1O[C@H]2O[C@H]3[C@@H](OC[C@H](O)[C@@H]3O)OC(=O)[C@@H]3CC(C)(C)C[C@H]4C5=CC[C@@H]6[C@@]7(C)C[C@H](O)[C@H](O[C@@H]8O[C@H](CO)[C@@H](O)[C@H](O)[C@H]8O[C@@H]8OC[C@H](OC(=O)C[C@](C)(O)CC(=O)O[C@@H]1[C@@H](O[C@@H]1OC[C@@H](O)[C@H](O)[C@H]1O)[C@H]2O)[C@H](O)[C@H]8O)[C@@](C)(CO)[C@@H]7CC[C@@]6(C)[C@]5(C)CCC34
- IC50 [27]: 40 µM

SMILES: Cc1ccc(Nc2nc(NS(=O)(=O)c3cc(C)c(C)cc3C)n[nH]2)cc1
- IC50 [28]: 5 µM
